# pKi: −log10 of the molar value. Active and inactive are the calls of the source. No cut-off for these calls is given here.
# Columns and labels:
# [1] = organism: Homo sapiens; experiment: Effect on insomnia patient assessed as restoration of sleep architecture; type: functional, organism-based
# [2] = organism: Homo sapiens; experiment: Antipsychotic activity in acute exacerbated schizophrenia patient; type: functional, organism-based
# [3] = target: T1, 5-hydroxytryptamine receptor 1A (Homo sapiens) (UniProt P08908); experiment: Inhibition of human 5HT1A receptor at 100 nM
# T1 sequence (whole entry): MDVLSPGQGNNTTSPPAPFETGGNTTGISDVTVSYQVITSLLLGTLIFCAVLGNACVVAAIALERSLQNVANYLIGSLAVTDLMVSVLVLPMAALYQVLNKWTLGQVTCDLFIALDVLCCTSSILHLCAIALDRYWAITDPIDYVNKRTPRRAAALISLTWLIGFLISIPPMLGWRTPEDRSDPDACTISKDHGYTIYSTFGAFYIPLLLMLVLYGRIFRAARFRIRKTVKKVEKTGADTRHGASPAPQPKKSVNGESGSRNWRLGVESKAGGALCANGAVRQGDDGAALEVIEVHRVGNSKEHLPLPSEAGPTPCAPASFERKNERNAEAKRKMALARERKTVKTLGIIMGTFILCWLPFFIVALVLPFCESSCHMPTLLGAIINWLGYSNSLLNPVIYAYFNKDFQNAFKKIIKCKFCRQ
# [4] = target: T2, Alpha-1A adrenergic receptor (Homo sapiens) (UniProt P35348); experiment: Inhibition of adrenergic alpha1A receptor (unknown origin) at 100 nM
# T2 sequence (whole entry): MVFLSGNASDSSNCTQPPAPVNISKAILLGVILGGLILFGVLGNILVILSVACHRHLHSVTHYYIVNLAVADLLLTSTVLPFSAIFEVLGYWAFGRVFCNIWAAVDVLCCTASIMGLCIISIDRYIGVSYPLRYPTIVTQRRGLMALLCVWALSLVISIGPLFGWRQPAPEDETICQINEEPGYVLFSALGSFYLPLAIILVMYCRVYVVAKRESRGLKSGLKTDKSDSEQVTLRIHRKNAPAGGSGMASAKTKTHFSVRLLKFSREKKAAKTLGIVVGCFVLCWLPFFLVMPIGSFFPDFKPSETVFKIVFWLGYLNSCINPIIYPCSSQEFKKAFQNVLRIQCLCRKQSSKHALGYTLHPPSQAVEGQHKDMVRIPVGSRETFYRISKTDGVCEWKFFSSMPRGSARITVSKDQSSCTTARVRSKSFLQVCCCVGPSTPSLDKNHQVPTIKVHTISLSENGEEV
# [5] = target: T3, Alpha-1B adrenergic receptor (Homo sapiens) (UniProt P35368); experiment: Inhibition of adrenergic alpha1B receptor (unknown origin) at 100 nM
# T3 sequence (whole entry): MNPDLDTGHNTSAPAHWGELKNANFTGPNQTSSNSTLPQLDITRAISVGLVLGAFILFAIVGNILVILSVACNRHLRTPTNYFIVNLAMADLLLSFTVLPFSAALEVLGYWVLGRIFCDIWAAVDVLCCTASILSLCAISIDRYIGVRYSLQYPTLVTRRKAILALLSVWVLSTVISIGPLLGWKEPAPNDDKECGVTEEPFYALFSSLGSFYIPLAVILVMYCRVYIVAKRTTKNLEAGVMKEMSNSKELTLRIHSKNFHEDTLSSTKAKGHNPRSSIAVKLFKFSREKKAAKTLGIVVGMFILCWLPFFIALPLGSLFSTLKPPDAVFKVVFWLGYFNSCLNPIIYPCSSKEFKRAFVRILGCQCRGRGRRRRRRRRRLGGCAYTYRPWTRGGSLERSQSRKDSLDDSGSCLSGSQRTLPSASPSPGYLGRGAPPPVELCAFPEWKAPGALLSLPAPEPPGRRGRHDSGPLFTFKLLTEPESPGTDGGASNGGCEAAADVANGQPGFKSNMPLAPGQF
# [6] = target: D(1A) dopamine receptor (Homo sapiens) (UniProt P21728); experiment: Inhibition of human dopamine D1 receptor at 100 nM
# [7] = tested on: Rattus norvegicus; experiment: Toxicity in po dosed Sprague-Dawley rat assessed as effect on escape behaviour; type: organism-based; settings: in vivo
# [8] = target: T4, 5-hydroxytryptamine receptor 1A (Homo sapiens, UniProt P08908); experiment: Inhibition of human 5HT1A receptor
# T4 sequence (P08908 whole entry): T1 sequence (whole entry)
# [9] = target: Histamine H1 receptor (Homo sapiens, UniProt P35367)
# Description: Inhibition of histamine H1 receptor (unknown origin)
# [10] = target: T5, Alpha-1B adrenergic receptor (Homo sapiens, UniProt P35368); experiment: Inhibition of adrenergic alpha1B receptor (unknown origin)
# T5 sequence (P35368 whole entry): T3 sequence (whole entry)
# [11] = target: D(2) dopamine receptor (Homo sapiens) (UniProt P14416); experiment: Antagonist activity at human recombinant dopamine D2 short receptor expressed in CHO cells assessed as inhibition of Eu-GTP binding at 10 uM; type: cell-based
# [12] = target: D(2) dopamine receptor (Homo sapiens) (UniProt P14416); experiment: Agonist activity at human recombinant dopamine D2 short receptor expressed in CHO cells up to 1 uM in absence of dopamine; type: cell-based
# [13] = tested on: Rattus norvegicus; experiment: Inhibition of quipazine-induced head twitches in po dosed rat head twitch model administered 25 mins prior to quipazine challenge measured after 30 mins; type: functional
# [14] = tested on: Rattus norvegicus; experiment: Inhibition of conditioned avoidance response in po dosed Sprague-Dawley rat model after 2 hrs by electric foot shock test; type: functional
# [15] = tested on: Rattus norvegicus; experiment: Toxicity in rat step-down latency model assessed as frank catalepsy at 30 mg/kg; type: organism-based; parameters: dose 30 mg/kg; settings: in vivo
# [16] = Lipophilicity, log D of the compound at pH 7.4; type: physicochemical; settings: buffer
# [17] = Lipophilicity, log D of the compound at pH 1.7; type: physicochemical; settings: buffer
# [18] = Solubility of the compound in PBS buffer at pH 7.4; type: physicochemical
# [19] = Plasma protein binding in human; type: ADME, cell-free; settings: read-out: PPB (converted)
# [20] = tested on: MDR1; experiment: Permeability from apical to basolateral side in MDCK cells transfected with MDR1; type: ADME, cell-based, Canis lupus familiaris; settings: dog, read-out: permeability
# [21] = tested on: Homo sapiens; experiment: Toxicity in healthy human administered once daily; type: organism-based; settings: in vivo
# [22] = tested on: Homo sapiens; experiment: Toxicity in schizophrenia patient administered once daily; type: organism-based; settings: in vivo
# [23] = target: T6, D(4) dopamine receptor (Homo sapiens, UniProt P21917)
# T6 sequence (P21917 whole entry): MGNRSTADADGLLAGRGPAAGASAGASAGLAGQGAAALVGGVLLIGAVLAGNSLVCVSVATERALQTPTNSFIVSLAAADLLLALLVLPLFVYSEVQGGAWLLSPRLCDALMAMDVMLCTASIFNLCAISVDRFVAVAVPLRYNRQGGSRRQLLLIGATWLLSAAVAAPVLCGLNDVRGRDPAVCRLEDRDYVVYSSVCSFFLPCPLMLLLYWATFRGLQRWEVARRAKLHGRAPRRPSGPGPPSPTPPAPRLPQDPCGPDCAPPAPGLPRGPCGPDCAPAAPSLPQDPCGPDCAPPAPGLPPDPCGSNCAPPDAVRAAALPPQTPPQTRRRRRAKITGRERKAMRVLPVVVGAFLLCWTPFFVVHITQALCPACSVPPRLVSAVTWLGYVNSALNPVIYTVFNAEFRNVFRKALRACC
# Description: Inhibition of human dopamine D4 receptor
# [24] = target: T7, D(4) dopamine receptor (Homo sapiens) (UniProt P21917); settings: 100 nM
# T7 sequence (whole entry): T6 sequence (P21917 whole entry)
# Description: Inhibition of human dopamine D4 receptor at 100 nM
# [25] = tested on: MDR1; experiment: in vitro; settings: dog, MDCK-MDR1
# Description: Efflux ratio of permeability from basolateral to apical side over apical to basolateral side indog MDCK cells expressing MDR1
# [26] = organism: Homo sapiens; experiment: Effect on sleep maintenance insomnia patient assessed as increase in slow wave sleep
# [27] = organism: Homo sapiens; experiment: Effect on sleep maintenance insomnia patient assessed as reduction of waking after sleep onset
# [28] = target: 5-hydroxytryptamine receptor 2A (Homo sapiens, UniProt P28223); experiment: biochemical; type: cell-based, HEK293E
# Description: Displacement of [125]DOI from human recombinant full length 5HT2A receptor expressed in HEK293E cells
# [29] = target: Sodium-dependent serotonin transporter (Homo sapiens, UniProt P31645); experiment: Displacement of [3H]-N-methyl-citalopram from SERT in human platelets at 100 nM after 60 mins by liquid scintillation counting analysis
# [30] = target: T8, 5-hydroxytryptamine receptor 2C (Homo sapiens, UniProt P28335); experiment: biochemical
# T8 sequence (P28335 whole entry): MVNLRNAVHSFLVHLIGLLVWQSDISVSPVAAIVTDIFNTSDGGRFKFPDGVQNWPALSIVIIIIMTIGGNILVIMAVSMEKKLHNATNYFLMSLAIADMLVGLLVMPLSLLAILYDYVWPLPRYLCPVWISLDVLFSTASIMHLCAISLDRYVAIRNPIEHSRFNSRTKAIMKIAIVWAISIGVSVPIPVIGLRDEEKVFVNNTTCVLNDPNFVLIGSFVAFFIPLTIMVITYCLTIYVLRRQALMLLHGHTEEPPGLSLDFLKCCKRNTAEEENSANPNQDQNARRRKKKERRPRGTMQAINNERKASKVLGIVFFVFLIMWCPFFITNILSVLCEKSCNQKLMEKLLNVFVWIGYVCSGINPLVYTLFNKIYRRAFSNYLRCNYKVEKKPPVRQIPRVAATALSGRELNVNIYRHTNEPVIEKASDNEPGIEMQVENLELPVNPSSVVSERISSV
# Description: Displacement of [125]DOI from human recombinant full length 5HT2C receptor expressed in HEK293E cells
# [31] = target: D(2) dopamine receptor (Rattus norvegicus, UniProt P61169); experiment: biochemical
# Description: Displacement of [3H]-N-methylspiperone from rat recombinant dopamine D2 short receptor expressed in CHO cells
# [32] = Selectivity ratio of Ki for rat recombinant dopamine D2 short receptor to Ki for human recombinant full length 5HT2A receptor
# [33] = target: T9, Alpha-1A adrenergic receptor (Homo sapiens, UniProt P35348)
# T9 sequence (P35348 whole entry): T2 sequence (whole entry)
# [34] = tested on: Rattus norvegicus; experiment: Inhibition of conditioned avoidance response in Sprague-Dawley rat model at 2 mg/kg, po after 2 hrs by electric foot shock test; type: functional, organism-based; parameters: dose 2 mg/kg
# D(2) dopamine receptor, sequence (P61169 whole entry): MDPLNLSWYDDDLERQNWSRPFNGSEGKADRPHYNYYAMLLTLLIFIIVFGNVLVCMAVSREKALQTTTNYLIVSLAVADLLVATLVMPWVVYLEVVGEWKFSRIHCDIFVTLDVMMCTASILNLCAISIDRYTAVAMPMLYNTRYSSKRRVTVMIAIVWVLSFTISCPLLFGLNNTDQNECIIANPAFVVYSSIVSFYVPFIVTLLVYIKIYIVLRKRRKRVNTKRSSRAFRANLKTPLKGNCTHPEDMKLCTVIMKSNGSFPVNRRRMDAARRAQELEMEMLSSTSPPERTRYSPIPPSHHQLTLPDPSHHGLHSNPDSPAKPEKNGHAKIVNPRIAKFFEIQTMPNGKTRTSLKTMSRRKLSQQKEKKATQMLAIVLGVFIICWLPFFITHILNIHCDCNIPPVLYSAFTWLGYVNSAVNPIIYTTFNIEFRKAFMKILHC
# 5-hydroxytryptamine receptor 2A, sequence (P28223 whole entry): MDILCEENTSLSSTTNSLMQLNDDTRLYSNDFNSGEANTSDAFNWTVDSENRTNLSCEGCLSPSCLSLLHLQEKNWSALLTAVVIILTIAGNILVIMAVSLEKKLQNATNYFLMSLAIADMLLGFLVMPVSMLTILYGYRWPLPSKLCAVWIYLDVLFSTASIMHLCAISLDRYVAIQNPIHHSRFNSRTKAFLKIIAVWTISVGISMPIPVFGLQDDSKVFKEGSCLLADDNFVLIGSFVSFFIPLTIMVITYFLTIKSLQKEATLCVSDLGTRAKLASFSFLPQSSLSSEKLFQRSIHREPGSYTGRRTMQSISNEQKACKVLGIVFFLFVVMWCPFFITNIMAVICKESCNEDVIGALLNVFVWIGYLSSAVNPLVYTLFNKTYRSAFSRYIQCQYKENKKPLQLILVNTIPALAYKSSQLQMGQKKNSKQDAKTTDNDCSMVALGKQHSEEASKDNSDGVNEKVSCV
# D(2) dopamine receptor (Homo sapiens), sequence (P14416 whole entry): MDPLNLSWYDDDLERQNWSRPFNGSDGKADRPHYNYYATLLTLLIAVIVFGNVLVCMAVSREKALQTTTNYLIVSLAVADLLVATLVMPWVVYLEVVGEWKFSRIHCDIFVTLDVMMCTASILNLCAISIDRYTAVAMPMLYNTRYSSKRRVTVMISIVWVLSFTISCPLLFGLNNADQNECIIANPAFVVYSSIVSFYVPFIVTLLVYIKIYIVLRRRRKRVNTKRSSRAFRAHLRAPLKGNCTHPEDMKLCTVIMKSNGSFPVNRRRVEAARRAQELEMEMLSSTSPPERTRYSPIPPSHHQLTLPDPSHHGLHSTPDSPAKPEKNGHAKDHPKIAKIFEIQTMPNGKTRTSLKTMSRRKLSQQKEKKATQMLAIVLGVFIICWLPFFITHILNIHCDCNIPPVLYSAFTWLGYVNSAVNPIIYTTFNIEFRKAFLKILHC
# Histamine H1 receptor, sequence (P35367 whole entry): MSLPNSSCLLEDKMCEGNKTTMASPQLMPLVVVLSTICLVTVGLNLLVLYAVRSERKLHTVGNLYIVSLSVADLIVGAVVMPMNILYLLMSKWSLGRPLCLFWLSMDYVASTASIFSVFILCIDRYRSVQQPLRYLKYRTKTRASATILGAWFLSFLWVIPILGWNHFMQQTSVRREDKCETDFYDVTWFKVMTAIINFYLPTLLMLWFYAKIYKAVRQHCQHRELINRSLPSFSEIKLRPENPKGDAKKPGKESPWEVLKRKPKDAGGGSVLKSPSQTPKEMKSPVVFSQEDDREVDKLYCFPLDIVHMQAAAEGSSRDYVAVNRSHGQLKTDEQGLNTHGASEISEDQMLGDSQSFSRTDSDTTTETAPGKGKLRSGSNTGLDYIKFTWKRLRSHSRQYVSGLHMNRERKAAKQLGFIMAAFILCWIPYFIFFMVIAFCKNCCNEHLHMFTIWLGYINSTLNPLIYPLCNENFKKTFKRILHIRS
# D(1A) dopamine receptor (Homo sapiens), sequence (P21728 whole entry): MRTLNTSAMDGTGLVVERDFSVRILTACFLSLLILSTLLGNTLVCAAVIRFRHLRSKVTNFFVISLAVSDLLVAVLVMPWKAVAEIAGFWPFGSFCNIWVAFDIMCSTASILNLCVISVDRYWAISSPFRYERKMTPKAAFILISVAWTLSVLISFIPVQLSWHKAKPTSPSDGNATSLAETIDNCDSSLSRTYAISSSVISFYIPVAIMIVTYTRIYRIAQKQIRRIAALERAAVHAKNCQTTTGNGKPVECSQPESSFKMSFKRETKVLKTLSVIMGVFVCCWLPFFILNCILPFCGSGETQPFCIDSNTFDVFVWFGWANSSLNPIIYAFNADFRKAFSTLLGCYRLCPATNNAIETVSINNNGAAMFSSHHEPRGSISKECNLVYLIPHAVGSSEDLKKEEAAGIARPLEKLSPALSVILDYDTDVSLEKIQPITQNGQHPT
# Sodium-dependent serotonin transporter, sequence (P31645 whole entry, looked up): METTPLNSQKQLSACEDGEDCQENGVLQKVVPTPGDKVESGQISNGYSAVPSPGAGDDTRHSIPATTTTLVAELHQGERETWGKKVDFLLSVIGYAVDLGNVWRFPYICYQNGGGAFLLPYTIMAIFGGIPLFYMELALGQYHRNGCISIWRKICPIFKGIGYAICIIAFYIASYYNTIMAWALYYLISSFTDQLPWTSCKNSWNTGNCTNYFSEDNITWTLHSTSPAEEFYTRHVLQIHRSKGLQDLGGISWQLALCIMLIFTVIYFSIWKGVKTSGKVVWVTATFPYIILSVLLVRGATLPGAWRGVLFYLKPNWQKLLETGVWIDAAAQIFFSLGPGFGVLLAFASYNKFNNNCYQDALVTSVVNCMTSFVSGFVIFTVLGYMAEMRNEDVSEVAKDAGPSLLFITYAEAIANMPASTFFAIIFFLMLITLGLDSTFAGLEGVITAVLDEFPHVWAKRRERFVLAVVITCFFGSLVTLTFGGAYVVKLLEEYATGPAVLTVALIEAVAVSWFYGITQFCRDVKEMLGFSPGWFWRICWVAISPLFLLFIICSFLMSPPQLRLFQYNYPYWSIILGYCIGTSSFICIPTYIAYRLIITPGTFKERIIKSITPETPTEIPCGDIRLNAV
smiles,measurement,setting,value
CN1CCN2c3c(cccc31)[C@@H]1CN(CCCC(=O)c3ccc(F)cc3)CC[C@@H]12.Cc1ccc(S(=O)(=O)O)cc1 [LUMATEPERONE TOSYLATE],Activity,[1],Active
same,Activity,[2],Active
same,inhibition,[3],> 50%
same,inhibition,[4],> 50%
same,inhibition,[5],> 50%
same,inhibition,[6],> 50%
same,Activity,[7],Non-toxic
same,pKi,[8],5.83
same,pKi,[9],< 6.00
same,pKi,[10],7.51
same,inhibition,[11],100%
same,Activity,[12],0%
same,ED50,[13],0.12 mg/kg
same,ED50,[14],1.5 mg/kg
same,Activity,[15],Non-toxic
same,logD,[16],3.38
same,logD,[17],0.55
same,solubility,[18],330 µg/mL
same,fraction unbound,[19],0.026
same,Papp A→B,[20],15.8 ×10⁻⁶ cm/s
same,Activity,[21],Non-toxic
same,Activity,[22],Non-toxic
same,pKi,[23],6.97
same,inhibition,[24],> 50%
same,efflux ratio,[25],1.3
same,Activity,[26],Active
same,Activity,[27],Active
CN1CCN2c3c(cccc31)[C@@H]1CN(CCCC(=O)N3CCC(F)(F)CC3)CC[C@@H]12,pKi,[28],< 6.00
same,inhibition,[29],3%
same,pKi,[30],< 6.00
same,pKi,[31],< 6.00
O=C(CCCN1CC[C@H]2[C@@H](C1)c1cccc3c1N2CCO3)c1ccc(F)cc1,pKi,[28],9.05
same,Ratio Ki,[32],46
same,pKi,[8],5.88
same,pKi,[10],6.98
same,ED50,[13],0.25 mg/kg
same,pKi,[33],6.58
same,pKi,[23],6.49
same,pKi,[30],6.28
same,pKi,[31],7.39
O=C(CCCN1CCC(O)(c2ccc(Cl)cc2)CC1)c1ccc(F)cc1 [HALOPERIDOL],Activity,[15],Toxic
same,Activity,[34],Active
CN1CCN2c3c(cccc31)[C@@H]1CN(CCCc3noc4ccccc34)CC[C@@H]12,pKi,[28],8.48
same,Ratio Ki,[32],53
same,pKi,[10],6.53
same,ED50,[13],1 mg/kg
same,pKi,[33],6.50
same,pKi,[30],6.54
same,pKi,[31],6.76
